Holding throughout (assay): growth of human tumour cells (NCI), 48 h
The subject of test [1] is ACHN renal.
Test [2] has as its system K-562 leukemia.
Test [3] concerns MCF7 breast.
Test [4] deals with MDA-N.
Test [5] concerns OVCAR-4 ovarian.
Test [6] concerns OVCAR-5 ovarian.
The subject of test [7] is SK-MEL-28 melanoma.
In test [8] the test system is SR leukemia.
Test [9] has as its system U251 CNS.
In test [10] the test system is NCI-H522 lung.
Test [11] has as its system TK-10 renal.

Results on 14 compounds are retold here after PubChem BioAssay (NCI).

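How tested: cells in 96-well plates exposed to compound for 48 hours at five concentrations. TGI: total growth inhibition.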

Regarding `C=C[C@@]1(C)CC(=O)[C@]2(O)[C@@]3(C)[C@@H](OC(C)=O)CCC(C)(C)[C@@H]3[C@H](OC(C)=O)[C@H](OC(C)=O)[C@@]2(C)O1`, the TGI in [1], in test [2], in [3], in [4], in test [5] and in test [6] was > 100 µM throughout. For the same compound, the TGI in test [7], in test [8] and in [9] was > 100 µM throughout.
`C=CCOCn1ccc(=O)[nH]c1=O`: the TGI in [1], in [2], in test [3], in test [4], in [10] and in test [7] was > 100 µM throughout. The TGI in [8] and in test [11] was > 100 µM throughout.
For `CC(=O)Nc1ccc2c(C)c3c4ccccc4n(C)c3nc2n1`, the TGI in [1] was 33.1 µM; in test [3], 96.7 µM; in test [4], 34.5 µM; in [10] it was 65.6 µM; in test [6] it was 51.6 µM; in test [8] it was 45.6 µM. The TGI in test [11] came out at 94.8 µM.
With `Cc1cc(Cl)ccc1N=NC(=O)NNc1ccc(Cl)cc1C`, the TGI is 40.3 µM in test [1]; 63 µM in [2]; 30.3 µM in test [4]; 35.1 µM in test [10]; 38.6 µM in test [5]; 30.7 µM in [6]. The TGI in [7] was 30.7 µM; in [8], 80.7 µM; in test [11], 38.3 µM; in test [9] it was 31.4 µM.
For `COc1ccc(OC)c2nc3c(C(=O)NCCN(C)C)cccc3nc12`, the TGI in [1] is > 100 µM; in test [2] it was 23.2 µM; in [3] it was > 29.8 µM; in test [4], 16 µM; in test [10], 13.4 µM; in test [5], 11.1 µM. Further, the TGI in test [6] was > 78.2 µM; in test [7], 22.2 µM; in [11], 46.8 µM; in test [9], 28.6 µM.
On to `NC1CC(=O)c2cc(Br)sc21` (configuration not stated), for which the TGI in [1], in test [2], in test [3], in [4], in test [6] and in test [7] was > 100 µM in each case. In addition, the TGI in test [8], in test [11] and in [9] was > 100 µM in each case.
`Cc1sc2nc3n(c(=O)c2c1C)N=C(c1ccc(Cl)cc1)CS3`: the TGI in test [1], in [2], in test [3], in test [4], in [10] and in test [5] was > 100 µM throughout. For the same compound, the TGI in test [6], in test [7], in [8] and in test [9] was > 100 µM each time.
As for `CSc1cc(Cl)c(C)cc1S(=O)(=O)NC(=O)NNc1ccc(F)c(Cl)c1`, the TGI in [1], in [2], in [3], in test [4], in [10] and in [5] was > 100 µM in each case. Also, the TGI in test [6], in test [7], in [8] and in test [9] was > 100 µM each time.
Consider `CC1(O)/C(=N/O)CC2CC1C2(C)C` (configuration not stated), for which the TGI in test [1], in test [2], in test [3], in [4], in [10] and in test [5] was > 100 µM in each case. Besides, the TGI in test [6], in test [7], in test [11] and in test [9] was > 100 µM throughout.
As for `Cc1ccc(S(=O)(=O)N2CCCCN(S(=O)(=O)c3ccc(C)cc3)Cc3ccccc3OCCOCCOc3c4cccc3Cc3cccc5c3OCCOCCOc3ccccc3CN(S(=O)(=O)c3ccc(C)cc3)CCCN(S(=O)(=O)c3ccc(C)cc3)Cc3ccccc3OCCOCCOc3c(cccc3C4)Cc3cccc(c3OCCOCCOc3ccccc3C2)C5)cc1`, the TGI in test [1], in test [2], in [3], in test [4], in [10] and in test [5] was > 100 µM throughout. In addition, the TGI in [6], in [11] and in test [9] was > 100 µM throughout.
For `CN(C)CCNc1ccc2c(=O)n(CCN(C)C)c(=O)n3c4ccc(N)cc4c(=O)c1c23`, the TGI in [1] was determined as 0.734 µM; in test [2], 0.0358 µM; in test [3] it was 0.242 µM; in test [4], 0.219 µM; in [10] it was 0.0832 µM; in test [5] it was 0.996 µM. In addition, the TGI was found to be 0.844 µM in [6], 0.819 µM in [7], 6.13 µM in test [11] and 0.988 µM in test [9].
`COC(=N)C12C(N)=NC(OC)(OC)C1(C#N)C21C(=O)N(c2ccccc2)N=C1C` (configuration not stated): the TGI in test [1], in test [2], in [3], in test [4], in test [10] and in test [5] was > 100 µM throughout. For the same compound, the TGI in [6], in [7], in test [8] and in test [9] was > 100 µM throughout.
Take `CCC(=O)COc1ccc(NC(NC(=O)C(C(F)(F)F)C(F)(F)F)(C(F)(F)F)C(F)(F)F)cc1`: the TGI is > 100 µM in test [1]; > 100 µM in [3]; 83.9 µM in [4]; 35.5 µM in [10]; > 100 µM in test [5]; > 100 µM in [6]. Moreover, the TGI in test [7] was > 100 µM; in test [8] it was 37.1 µM; in test [11] it was > 100 µM; in test [9], > 100 µM.
As for `COC(=O)[C@H](Cc1ccccc1)NC(=O)N1CCN(C(=O)N[C@@H](Cc2ccccc2)C(=O)OC)CCN(C(=O)N[C@@H](Cc2ccccc2)C(=O)OC)CC1`, the TGI in test [1], in test [2], in test [3], in test [4], in test [10] and in [5] was > 100 µM throughout. Further, the TGI in test [6], in [7], in [11] and in [9] was > 100 µM each time.
